# Experimental data as given in publication PMC4210869, “Functional Phylogenetics Reveals Contributions of Pleiotropic Peptide Action to Ligand-Receptor Coevolution” (Scientific Reports, 2014).
# Where two headings read alike, the source gives them in different places. Where no end group is shown, it is not given here.
# Tests used:
# Format in all cases: cell-based
# [1] = target: T1, TcCAPAr (Tribolium castaneum, UniProt A0A0A7H7W3); experiment: Aequorin luminescence (calcium mobilization) assay, CHO cells transiently expressing TcCAPAr
# T1 sequence (A0A0A7H7W3 1-418): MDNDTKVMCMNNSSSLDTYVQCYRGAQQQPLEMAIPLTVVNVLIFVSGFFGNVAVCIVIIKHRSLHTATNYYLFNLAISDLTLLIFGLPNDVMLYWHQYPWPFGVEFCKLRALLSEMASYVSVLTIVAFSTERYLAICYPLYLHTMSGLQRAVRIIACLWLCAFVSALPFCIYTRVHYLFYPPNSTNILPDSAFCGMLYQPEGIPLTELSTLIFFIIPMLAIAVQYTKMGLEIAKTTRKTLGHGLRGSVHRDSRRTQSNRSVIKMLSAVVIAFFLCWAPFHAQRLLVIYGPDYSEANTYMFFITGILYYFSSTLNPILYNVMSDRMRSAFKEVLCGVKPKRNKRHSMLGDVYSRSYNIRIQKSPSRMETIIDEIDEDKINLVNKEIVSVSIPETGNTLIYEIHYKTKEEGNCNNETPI
# Method: (§1) We characterized all PRXamide GPCRs through assays of 9 endogenous ligands. Ligand activities were quantified by detection of luminescence responses from CHO cells transiently transfected with GPCR (see Methods and Materials section for details). Dose-response curves were generated by logistic fitting of the log transformed ligand concentrations ranging from 0.01 nM to 10 μM (Fig. 3). All results, shown as averages, were replicated in three independent experiments (see Supplementary Data 1 for details).
# (§2) T. castaneum was kept in a 30°C growth chamber under a 16 : 8 (L : D) photoperiod and fed on a diet of wheat flour and Brewer's yeast (10 : 1). Peptides from T. castaneum were synthesized by Genescript (Piscataway, NJ). For culture of Chinese Hamster Ovary cells (CHO), DMEM/F12 medium, fetal bovine serum (FBS), Fungizone and Penicillin/Streptomycin, and coelenterazine for aequorin functional assay were purchased from Gibco cell culture at Life Technologies^TM (Grand Island, NY). TransIT-LT1 Transfection Reagent (Mirus Bio LLC, Madison, WI) was used for transient transfections. […]
# (§3) cDNAs for full GPCR ORFs were inserted into the expression vector pcDNA3.1(+) (Invitrogen) or pcDNA5/FRT (Invitrogen). Methods for expression in Chinese Hamster Ovary (CHO) cell supplemented with aequorin and G-α16 and the assays were performed as previously described. Briefly, cells were transfected using the TransIT-LT1 transfection reagent (Mirus Bio LLC). Thirty hours after the transfection, the cells were collected and preincubated with the coelenterazine (Invitrogen) prior to the functional assay. A serial dilution (10 folds) of the 9 endogenous ligands were applied to the cells. The luminescence caused by the intracellular calcium mobilization were measured in continuous 20 seconds in every half-second interval. […] Based on which, a dose response curve was generated for each receptor by logistic fitting in Origin 8.6 (OriginLab).
# [2] = target: T2, TcPKr-A (Tribolium castaneum, UniProt A0ACM8QKC5); experiment: Aequorin luminescence (calcium mobilization) assay, CHO cells transiently expressing TcPKr-A
# T2 sequence (A0ACM8QKC5 1-530): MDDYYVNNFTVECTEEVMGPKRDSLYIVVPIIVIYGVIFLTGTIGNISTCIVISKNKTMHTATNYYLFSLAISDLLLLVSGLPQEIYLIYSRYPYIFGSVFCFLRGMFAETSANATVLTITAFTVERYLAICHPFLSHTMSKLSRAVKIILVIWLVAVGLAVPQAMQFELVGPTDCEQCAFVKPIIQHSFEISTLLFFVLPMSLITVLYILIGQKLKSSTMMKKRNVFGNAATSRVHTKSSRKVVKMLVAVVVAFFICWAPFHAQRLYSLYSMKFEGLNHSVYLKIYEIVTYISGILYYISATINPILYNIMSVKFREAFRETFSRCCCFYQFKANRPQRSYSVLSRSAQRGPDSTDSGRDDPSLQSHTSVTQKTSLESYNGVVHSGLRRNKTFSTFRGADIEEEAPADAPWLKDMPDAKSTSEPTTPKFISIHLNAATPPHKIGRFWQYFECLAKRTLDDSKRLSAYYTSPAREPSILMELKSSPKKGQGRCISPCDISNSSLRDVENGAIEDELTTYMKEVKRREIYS
# Method: as §1, §2, §3
# [3] = target: T3, TcPKr-B (Tribolium castaneum, UniProt A0A0A7H8P0); experiment: Aequorin luminescence (calcium mobilization) assay, CHO cells transiently expressing TcPKr-B
# T3 sequence (A0A0A7H8P0 1-560): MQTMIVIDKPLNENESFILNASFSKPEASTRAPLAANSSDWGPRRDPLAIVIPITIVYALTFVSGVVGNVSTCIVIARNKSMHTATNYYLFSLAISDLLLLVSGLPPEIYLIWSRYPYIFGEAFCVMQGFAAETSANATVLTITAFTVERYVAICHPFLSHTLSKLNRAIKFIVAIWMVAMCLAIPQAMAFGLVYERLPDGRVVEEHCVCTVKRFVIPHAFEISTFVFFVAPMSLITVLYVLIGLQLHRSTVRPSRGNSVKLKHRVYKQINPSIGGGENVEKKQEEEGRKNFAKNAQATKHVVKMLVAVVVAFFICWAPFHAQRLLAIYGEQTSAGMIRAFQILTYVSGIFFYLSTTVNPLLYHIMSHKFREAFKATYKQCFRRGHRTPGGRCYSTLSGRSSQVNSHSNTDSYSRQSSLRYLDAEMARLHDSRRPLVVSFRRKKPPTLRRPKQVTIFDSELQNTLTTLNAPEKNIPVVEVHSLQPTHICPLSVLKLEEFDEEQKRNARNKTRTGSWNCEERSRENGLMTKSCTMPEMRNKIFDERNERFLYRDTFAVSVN
# Method: as §1, §2, §3
# [4] = target: T4, TcPKr-C (Tribolium castaneum, UniProt A0ACM8QKC4); experiment: Aequorin luminescence (calcium mobilization) assay, CHO cells transiently expressing TcPKr-C; conditions: for Receptor activation, in words: text summary of dose-response data
# T4 sequence (A0ACM8QKC4 1-483): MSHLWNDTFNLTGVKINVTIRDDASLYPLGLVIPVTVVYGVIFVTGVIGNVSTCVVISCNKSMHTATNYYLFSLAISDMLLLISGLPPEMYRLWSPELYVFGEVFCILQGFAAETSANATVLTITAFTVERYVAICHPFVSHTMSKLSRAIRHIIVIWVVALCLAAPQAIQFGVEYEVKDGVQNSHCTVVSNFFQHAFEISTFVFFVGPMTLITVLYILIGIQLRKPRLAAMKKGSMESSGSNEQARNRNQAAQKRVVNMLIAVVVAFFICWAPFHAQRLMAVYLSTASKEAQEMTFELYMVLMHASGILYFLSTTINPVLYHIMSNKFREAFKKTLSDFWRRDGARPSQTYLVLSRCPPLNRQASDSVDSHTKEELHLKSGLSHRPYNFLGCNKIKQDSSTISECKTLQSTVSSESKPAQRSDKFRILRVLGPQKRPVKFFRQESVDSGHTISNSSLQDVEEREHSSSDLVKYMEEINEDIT
# Method: as §1, §2, §3
# [5] = EC50 (bound given in μM), Fig. 3, above highest tested concentration 10 μM
# [6] = Supplementary data 1, fitted value incl. extrapolations beyond 10 μM, unit inferred, nM by Fig. 3, read-out: EC50s
# [7] = EC50 [nM], Fig. 3, CHO cells with aequorin and G-α16, logistic fit, ligand 0.01 nM to 10 μM, average of three independent experiments
Substance,"EC50 [1, 5]","EC50 [1, 6]","EC50 [2, 6]","EC50 [3, 6]","EC50 [4, 6]","EC50 [3, 5]","EC50 [4, 5]","EC50 [2, 5]","EC50 [1, 7]","Receptor activation, in words [4]",EC50 [1]
HSSPFSPRL-NH2 [PK2/PBAN-3],> 10 µM,36.6 µM,7.7 nM,28.7 nM,1 nM,–,–,–,–,–,–
ENYVLKAAKNVPRI-NH2 [ETH-1],–,0.15 µM,9840 nM,120000 nM,–,> 10000 nM,> 10000 nM,–,–,–,–
RIGKMVSFPRI-NH2 [CAPA-2],–,0.0058 µM,12800 nM,62500 nM,–,> 10000 nM,> 10000 nM,> 10000 nM,–,–,–
HVVNFTPRL-NH2 [PK2/PBAN-1],> 10 µM,16.1 µM,21 nM,11.9 nM,1.4 nM,–,–,–,–,–,–
PGANSGGMWFGPRL-NH2 [PK1/DH-1],–,1.07 µM,6.2 nM,161 nM,–,–,> 10000 nM,–,6.97 µM,not,–
SPPFAPRL-NH2 [PK2/PBAN-2],–,6.97 µM,17.5 nM,3.2 nM,13 nM,–,–,–,1.07 µM,–,–
NKLASVYALTPSLRV-NH2 [CAPA-1],–,–,30700 nM,338000 nM,–,> 10000 nM,> 10000 nM,> 10000 nM,–,–,0.0037 µM
TPHESSVPNERNDDSKETYFWFGPRL-NH2 [PK1/DH-2],–,1.07 µM,92.6 nM,65.8 nM,576 nM,–,–,–,–,activated by high concentrations,–
FFMKASKSVPRI-NH2 [ETH-2],–,0.0888 µM,6300 nM,21800 nM,502000 nM,> 10000 nM,> 10000 nM,–,–,–,–
